This note sets out measurements from ChEMBL document CHEMBL3784945, “Isoindolinone compounds active as Kv1.5 blockers identified using a multicomponent reaction approach” (Bioorg Med Chem Lett, 2016).

Data set [1] deals with Potassium voltage-gated channel subfamily A member 5 (Homo sapiens, UniProt P22460). The data set can be described thus: Inhibition of human Kv1.5 channel by QPatch-clamp method. A general note: In patch-clamp work, channel activity is measured electrically.
The test system of data set [2] is Liver microsome. The data set can be described thus: (§1) Intrinsic clearance in human liver microsomes. Conditions: microsomes. It is filed as ADME.
Data set [3] has as its target Voltage-gated inwardly rectifying potassium channel KCNH2 (Homo sapiens, UniProt Q12809). The data set can be described thus: Inhibition of human ERG.
The subject of data set [4] is Mus musculus. The data set can be described thus: In vivo inhibition of Kv1.5 channel in BaLBc mouse assessed as unbound steady-state plasma concentration required to increase QT-interval by 30% at 20 umol/kg,iv for 15 mins. It is filed as functional.
Data set [5] can be described thus: Lipophilicity, log D of the compound by HPLC analysis. It is filed as physicochemical.
A short description of data set [6]: Clearance in iv dosed dog. The data set is classed as ADME, organism-based, Canis lupus familiaris. Particulars: in vivo.
Data set [7] can be described thus: as §1. The data set is classed as ADME. Conditions: liver microsomes, read-out: CLH. In general terms: Microsomes from liver hold many membrane-bound enzymes, among them those of drug oxidation.
Data set [8] deals with Cytochrome P450 3A4 (Homo sapiens, UniProt P08684). Nature of the data set: Inhibition of CYP3A4 (unknown origin). It is filed as ADME.
A short description of data set [9]: Clearance in iv dosed rat. The data set is classed as ADME, organism-based. Conditions: in vivo.
Data set [10] is described as follows: Absolute bioavailability in rat. The data set is classed as ADME, organism-based. Conditions: in vivo.
A short description of data set [11]: Absolute bioavailability in dog. The data set is classed as ADME, organism-based, Canis lupus familiaris. Conditions: in vivo.
Data set [12] can be described thus: Solubility of crystalline form of compound. It is filed as physicochemical.
Data set [13] can be described thus: Solubility of the compound. The data set is classed as physicochemical.

pIC50: −log10 of the molar value. ≈ marks a conversion by molar mass, not a printed value.

Chain of Potassium voltage-gated channel subfamily A member 5 (P22460 whole entry): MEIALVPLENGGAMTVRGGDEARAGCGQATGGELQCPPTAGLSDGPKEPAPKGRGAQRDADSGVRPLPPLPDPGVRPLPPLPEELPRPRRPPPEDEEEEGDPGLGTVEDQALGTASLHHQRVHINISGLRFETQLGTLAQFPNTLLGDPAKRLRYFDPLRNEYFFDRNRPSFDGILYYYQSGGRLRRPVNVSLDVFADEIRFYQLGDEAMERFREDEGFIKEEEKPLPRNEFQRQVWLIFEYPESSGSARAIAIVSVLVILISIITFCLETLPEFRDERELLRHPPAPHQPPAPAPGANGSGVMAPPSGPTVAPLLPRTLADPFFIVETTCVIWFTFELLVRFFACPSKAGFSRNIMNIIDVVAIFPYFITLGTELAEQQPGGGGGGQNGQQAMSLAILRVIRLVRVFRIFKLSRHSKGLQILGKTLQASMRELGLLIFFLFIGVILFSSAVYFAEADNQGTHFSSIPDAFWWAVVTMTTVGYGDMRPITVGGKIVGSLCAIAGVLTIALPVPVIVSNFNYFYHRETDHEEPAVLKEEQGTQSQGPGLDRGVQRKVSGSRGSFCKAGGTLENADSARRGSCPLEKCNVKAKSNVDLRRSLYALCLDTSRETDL
Chain of Voltage-gated inwardly rectifying potassium channel KCNH2 (Q12809 whole entry): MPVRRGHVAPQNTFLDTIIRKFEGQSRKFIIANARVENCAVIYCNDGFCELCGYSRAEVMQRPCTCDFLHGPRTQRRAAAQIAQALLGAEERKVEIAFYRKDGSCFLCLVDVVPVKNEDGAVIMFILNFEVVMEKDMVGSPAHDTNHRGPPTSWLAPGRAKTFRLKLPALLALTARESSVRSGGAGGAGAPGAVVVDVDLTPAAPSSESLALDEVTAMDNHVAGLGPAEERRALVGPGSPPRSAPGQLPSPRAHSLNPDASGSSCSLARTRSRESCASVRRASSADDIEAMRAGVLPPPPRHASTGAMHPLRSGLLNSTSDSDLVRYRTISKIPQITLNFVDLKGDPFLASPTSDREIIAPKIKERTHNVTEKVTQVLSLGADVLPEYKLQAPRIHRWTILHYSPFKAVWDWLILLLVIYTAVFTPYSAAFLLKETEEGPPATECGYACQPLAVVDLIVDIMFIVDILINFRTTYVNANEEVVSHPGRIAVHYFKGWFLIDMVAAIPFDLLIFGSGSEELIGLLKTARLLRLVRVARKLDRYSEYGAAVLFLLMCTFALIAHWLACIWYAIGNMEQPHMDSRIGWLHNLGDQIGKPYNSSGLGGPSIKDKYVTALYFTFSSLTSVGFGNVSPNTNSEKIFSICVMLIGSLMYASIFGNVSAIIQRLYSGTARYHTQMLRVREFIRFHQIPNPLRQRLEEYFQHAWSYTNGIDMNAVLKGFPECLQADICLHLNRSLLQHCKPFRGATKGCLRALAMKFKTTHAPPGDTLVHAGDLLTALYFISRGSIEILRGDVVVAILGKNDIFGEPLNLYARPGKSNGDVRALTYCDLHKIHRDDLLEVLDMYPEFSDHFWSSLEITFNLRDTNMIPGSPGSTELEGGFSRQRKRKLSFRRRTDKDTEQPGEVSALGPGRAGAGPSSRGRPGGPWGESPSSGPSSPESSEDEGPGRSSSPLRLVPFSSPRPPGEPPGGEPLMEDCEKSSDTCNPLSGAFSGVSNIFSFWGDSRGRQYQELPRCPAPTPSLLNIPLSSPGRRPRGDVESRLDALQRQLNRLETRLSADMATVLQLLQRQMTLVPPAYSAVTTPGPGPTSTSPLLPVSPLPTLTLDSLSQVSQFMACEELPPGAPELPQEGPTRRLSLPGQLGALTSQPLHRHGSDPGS
Chain of Cytochrome P450 3A4 (P08684 whole entry): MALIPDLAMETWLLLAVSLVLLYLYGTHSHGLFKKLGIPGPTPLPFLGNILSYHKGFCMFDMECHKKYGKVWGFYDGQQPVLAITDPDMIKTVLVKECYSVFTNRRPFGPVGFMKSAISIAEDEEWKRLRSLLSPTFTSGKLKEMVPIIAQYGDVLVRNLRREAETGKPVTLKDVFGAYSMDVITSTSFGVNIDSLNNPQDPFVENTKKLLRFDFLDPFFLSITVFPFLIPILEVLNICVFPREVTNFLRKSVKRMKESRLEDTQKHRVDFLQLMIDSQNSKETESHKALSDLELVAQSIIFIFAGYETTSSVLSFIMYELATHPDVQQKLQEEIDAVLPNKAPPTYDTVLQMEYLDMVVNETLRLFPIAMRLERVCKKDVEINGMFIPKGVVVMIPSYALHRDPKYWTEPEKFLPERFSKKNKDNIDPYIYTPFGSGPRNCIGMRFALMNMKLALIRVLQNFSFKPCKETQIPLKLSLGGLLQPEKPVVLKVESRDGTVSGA

Broadly, the pIC50 is −log10 of the IC50, conventionally taken in molar units. Read a low pIC50 as a large IC50. Regarding `CC(C)(C)NC(=O)C1c2ccccc2C(=O)N1Cc1cc(F)ccc1-c1ccc(F)cc1` (single isomer, unassigned; enantiomer 2), the pIC50 in data set [1] is 6.05; in data set [3], less than 4.48. In data set [2], this molecule had a CLH of 41 µL/min/mg. Besides, the Activity in [4] was found to be 0.28 µM.
The term logD denotes the decadic logarithm of the distribution of all forms, ionised or not, between an organic phase and buffer at a given pH. Turning to `CC(C)(C)NC(=O)C1c2ccccc2C(=O)N1Cc1ccccc1-c1ccc(F)c(F)c1` (stereo in doubt; 16E1), the pIC50 in data set [1] was 5.82; in [3], less than 4.48. The logD in data set [5] (read-out: logD) is 5. The same molecule returned a CLH in data set [2] of 38 µL/min/mg. Moreover, the Activity in data set [4] turned out to be 0.066 µM.
Broadly, the clearance is a measure of how efficiently the substance is removed, as volume per time. As a reminder, the bioavailability is the share of a dose that reaches the circulation, judged against a reference dose that is usually intravenous. The solubility is how much of the substance goes into solution per volume. Higher therefore signals much dissolved substance. As for `CCCNC(=O)C1c2ccccc2C(=O)N1CC(C)c1ccc(Cl)cc1` (single isomer, unassigned; isomer 1), the clearance in data set [6] came to 6 mL/min/kg; in data set [9] it was 7.8 mL/min/kg. The pIC50 in data set [1] is 6.40; in data set [8], less than 4.30. Further, the logD in data set [5] (read-out: logD) was 4.2. The microsomal CLint in [7] amounted to 99 µL/min/mg. Moreover, the Activity in data set [4] turned out to be 0.5 µM. Further, the results for the bioavailability in [10] and in data set [11] were 81% and 63%, respectively. Also, the concentration in solution in [12] (solubility) was 21 µM (≈ 7.79 µg/mL).
For the molecule `CCCNC(=O)C1c2ccccc2C(=O)N1CC(C)c1ccc(Cl)cc1` (single isomer, unassigned; isomer 2), in [1], the pIC50 is 6.15. The molecule also returned a logD in data set [5] of 3.9. This molecule also yielded a CLH in data set [2] of 183 µL/min/mg. In addition, in [4], the Activity was determined as 0.4 µM.
As for `CC(C)(CN1C(=O)c2ccccc2C1C(=O)NCCCF)c1ccc(Cl)cc1` (single isomer, unassigned; enantiomer 1), the clearance in [6] was found to be 18 mL/min/kg; in data set [9], 4.7 mL/min/kg. The results for the pIC50 in data set [1], in data set [3] and in data set [8] were 6.15, less than 4.48 and less than 4.30, respectively. Further, the logD in data set [5] (read-out: logD) is 4.2. Further, in data set [7], the microsomal CLint is 14 µL/min/mg. Also, the Activity in data set [4] was 0.4 µM. In data set [13], this molecule showed a solubility of 83 µM (≈ 33.4 µg/mL). Also, the bioavailability was 58% in [10] and 41% in data set [11].
As for `CC(C)(CN1C(=O)c2ccccc2C1C(=O)NCCCF)c1ccc(Cl)cc1` (stereo in doubt; 23), the pIC50 in data set [1] is 6.30. This molecule came in with a logD in data set [5] of 4. In [2], this molecule registered a CLH of less than 12 µL/min/mg. Also, in data set [4], the Activity amounted to 1.3 µM.
